Laboratory results published in patent US4329349A, “6-C1-4 Alkyl-7-phenyl or substituted phenyl-1,6-naphthyridine-5(6H)-ones” (Sandoz, Inc., priority 1980, dated 1982).
Read-outs that look alike come from different tables or passages of the source.

Tests used:
Format in all cases: in vivo
[1] = tested on: male Royal Hart mice (rotarod time); test: Test A (Rotarod Test), muscle relaxant; settings: for ED50: Mus musculus, tested 30 and 60 minutes after administration, read-out: ED50 (dose which decreases the rotarod time by 50%); for percent change in rotarod time: 200 mg./kg. p.o., vs control
Source text: (§1) The compounds of Formula I and the pharmaceutically acceptable acid addition salts thereof are useful for the treatment of inflammation in animals (e.g., mammals) as indicated by Test E and, with the exception of those wherein R2 is 4-NR5 R6 and R3 and R4 are hydrogen, as muscle relaxants in animals (e.g., mammals) as indicated by Tests A, B, C and D. The preferred compounds of Formula I and pharmaceutically acceptable acid addition salts set forth above are those that are preferred for muscle relaxation.
Test A (Rotarod Test): A modification of the rotarod method of Dunham et al., J. Am. Pharm. Assoc. 46, 208 (1957), is used. Groups of 5 male Royal Hart mice weighing 20-25 g. are trained to ride a rod revolving at 15 r.p.m. covered with corrugated paper for 60-90 seconds. Ability of the mice to remain on the rod is tested again at 30 minutes and 60 minutes after intraperitoneal or oral administration of the drug (the compound of Formula I in free base or pharmaceutically acceptable acid addition salt form) at a dose of 20-400 mg./kg. body weight or saline. Rotarod times for control and treated groups are compared to determine the percent change. The ED50 is the dose of the drug which decreases the rotarod time by 50% or is calculated by interpolation.

linguomandibular reflex = test: Test D (Linguomandibular Reflex (LMR)), muscle relaxant; settings: Felis catus, iv, cats, alpha chloralose anesthesia; read-out: ED50 (dose that reduces the response by 50%)
Source text: as §1
Test D (Linguomandibular Reflex (LMR)): The linguomandibular reflex is a polysynaptic reflex involving interneurons within the brain stem. Inhibition of the linguomandibular reflex has been correlated with central muscle relaxant activity. See Bhargava et al., Brit. J. Pharmacol. 25, 74-80 (1965).
Male cats weighing 2.0-3.0 kg. are utilized to study the effect of a drug on the linguomandibular reflex. […]
The head of the cat is rigidly fixed in a Kopf stereotaxic u-frame assembly allowing the lower jaw (mandible) to move freely. The movement of the lower jaw is recorded through a system of surgical thread, pulleys and a ft. […]
After consistent linguomandibular responses are obtained, the test drug (compound of Formula I in free base or pharmaceutically acceptable acid addition salt form) is administered intravenously at a dose of 2-50 mg./kg. body weight and its effect is recorded. […]

[2] = tested on: mono (patellar)--and poly (flexor)--synaptic gross spinal reflexes; test: Test B (Gross Spinal Reflex), muscle relaxant; settings: Felis catus, iv, cats, alpha chloralose anesthesia, progressively accumulating doses; read-out: ED50 (dose that reduces the response by 50%)
Source text: as §1
Test B (Gross Spinal Reflex): Male cats weighing 2.5-3.0 kg. are utilized to study the effects of drugs on the mono (patellar)--and poly (flexor)--synaptic gross spinal reflexes. A Grass Model 7 polygraph with two ft. 03 force displacement transducers and two low level D.C. pre-amplifiers is utilized to measure the flexor and patellar responses.
Anesthesia is induced with ether, followed by an i.v. injection of alpha chloralose dissolved in warm distilled water at a dose of 70 mg./kg. body weight. […]
A drill bit pin is inserted just behind the lateral epicondyle of the left femur. […] Contraction of the left leg is measured via a force displacement transducer. […]
A series of control responses is recorded prior to administration of the drug (compound of Formula I in free base or pharmaceutically acceptable acid addition salt form). […]

[3] = tested on: carrageenan-induced edema; test: Test E (Acute Carrageenan-Induced Edema), anti-inflammatory; settings: Rattus norvegicus, po, 3 h; p.o., rats, one hour prior to carrageenan; edema measured three hours after carrageenan
Source text: as §1
Test E (Acute Carrageenan-Induced Edema): Rats are orally dosed (10-200 mg./kg. body weight) with the test drug (compound of Formula I in free base or pharmaceutically acceptable acid addition salt form) one hour prior to administration of carrageenan; edema is measured three hours subsequent to the carrageenan administration. See Winter, Proc. Soc. Exp. Biol. 111, 544 (1962).

Cn1c(-c2ccccc2Cl)cc2ncccc2c1=O [Example 4, 7-(2'-Chlorophenyl)-6-methyl-1,6-naphthyridine-5(6H)-one]
ED50 ([1]; ip): 49.3 mg/kg | ED50 ([1]; po): 39.1 mg/kg | ED50 (linguomandibular reflex): 4.6 mg/kg | ED50 [2]: 1.6 mg/kg | ED50 [3]: 29 mg/kg

Cc1ccccc1-c1cc2ncccc2c(=O)n1C [Example 6, 6-Methyl-7-(2'-methylphenyl)-1,6-naphthyridine-5-(6H)-one]
ED50 ([1]; ip): 36.8 mg/kg | ED50 ([1]; po): 43.5 mg/kg

CN(C)c1cccc(-c2cc3ncccc3c(=O)n2C)c1 [Example 8, 7-(3'-Dimethylaminophenyl)-6-methyl-1,6-naphthyridine-5(6H)-one]
percent change in rotarod time [1]: 47.3% | ED50 ([1]; ip): 141 mg/kg

Cn1c(-c2ccc(Cl)cc2)cc2ncccc2c1=O [Example 11, 7-(4'-Chlorophenyl)-6-methyl-1,6-naphthyridine-5-(6H)-one]
percent change in rotarod time [1]: 32% | ED50 ([1]; ip): 134 mg/kg
